According to patent US6686449B2, “Mutant presenilin 1 polypeptides” (Pharmacia & Upjohn Company, priority 2000, dated 2004):
Where a SMILES comes first, the peptide text is derived from it. The star is where a group is joined. Cbz = O=C(OCc1ccccc1)*

Legend:
Assay type in all cases: cell-based, human
[1] = system: Aβ1-40 production in H125.3-16 (APP-Sw-KK) and APA2 (APP-Sw-KK and PS1-wt) cells; assay: Inhibition assay, stable cell lines: Elisa of Aβ1-40 in conditioned media, PS1wt cell lines; conditions: PS1wt cell lines (H125.3-16, APA2)
Source text: (§1) The purpose of the experiment was to assess the effect of compounds known or postulated to have an effect on processing at the proposed gamma cleavage site
(§2) The compounds used were L685,458 (Bachem Cat # H-5106) described by Li et al (15), one we have designated 512088, a fenchylamine sulfonamide inhibitor described by Rishton et al. (16). Z-Leu-Leu-Leu-H, also known as MG132 (Peptide Institute Cat # 3175-v) described by Tajima et al (17), and DMSO (Aldrich Cat # 27,685-5) as a vehicle control. All drugs were resuspended in DMSO at a concentration of 10 mM. Serial dilutions of the drugs were made in cell culture media [DMEM (Gibco cat # 11965-092) supplemented with 10% fetal bovine serum, 1 mM sodium pyruvate, 100 units/ml penicillin G, 100 ug/ml streptomycin sulfate, and 400 ug/ml Geneticin]. Stable cell lines used for drug testing were H125.3-16 (expressing APP-Sw-KK), APA2 (co-expressing APP-Sw-KK and PS1-wt), APB10 (co-expressing APP-Sw-KK and PS1-DTG385), and APD3 (co-expressing APP-Sw-KK and PS1-M146V). […] Conditioned media was harvested 24 hours post-treatment and analyzed in an Elisa assay for Aβ40 or Aβ42 levels (Described below). […]
(§3) Primary Antibody 6E10 was purchased from Senetek PLC (St. Louis, Mo.). […] Plates were read on a Molecular Devices Thermomax Plate Reader with integrated software that calculated the data and analyzed confidence values for the samples. […]

[2] = system: Aβ1-40 production in APB10 cells (APP-Sw-KK and PS1-DTG385); assay: Inhibition assay, stable cell lines: Elisa of Aβ1-40 in conditioned media, PS1-DTG385 cell line
Source text: as §1, §2, §3

[3] = system: Aβ1-42 production in H125.3-16 (APP-Sw-KK) and APA2 (APP-Sw-KK and PS1-wt) cells; assay: Inhibition assay, stable cell lines: Elisa of Aβ1-42 in conditioned media, PS1wt cell lines; conditions: for dose response profile, Aβ1-42 production: PS1wt cell lines (H125.3-16, APA2)
Source text: as §1
(§4) The compounds used were L685,458 (Bachem Cat # H-5106) described by Li et al (15), one we have designated 512088, a fenchylamine sulfonamide inhibitor described by Rishton et al. (16). Z-Leu-Leu-Leu-H, also known as MG132 (Peptide Institute Cat # 3175-v) described by Tajima et al (17), and DMSO (Aldrich Cat # 27,685-5) as a vehicle control. All drugs were resuspended in DMSO at a concentration of 10 mM. Serial dilutions of the drugs were made in cell culture media [DMEM (Gibco cat # 11965-092) supplemented with 10% fetal bovine serum, 1 mM sodium pyruvate, 100 units/ml penicillin G, 100 ug/ml streptomycin sulfate, and 400 ug/ml Geneticin]. Stable cell lines used for drug testing were H125.3-16 (expressing APP-Sw-KK), APA2 (co-expressing APP-Sw-KK and PS1-wt), APB10 (co-expressing APP-Sw-KK and PS1-DTG385), and APD3 (co-expressing APP-Sw-KK and PS1-M146V). APP-Sw-KK (An APP construct with a di-lysine motif at the C terminus) has been described in U.S. patent application Ser. No. 09/416901 filed Oct. 13, 1999 and also in WO 00/17369 “Alzheimer's Disease Secretase” published Mar. 30, 2000. Cells were plated at a concentration of 2.5×10^4 or 5.0×10^4 cells per well of a 96 well dish on day 1. Cells were treated with various concentrations of drugs on day 3. Conditioned media was harvested 24 hours post-treatment and analyzed in an Elisa assay for Aβ40 or Aβ42 levels (Described below). An MTS assay (Promega) was performed on the cells 24 hours post-treatment to assess toxicity levels of the drugs.
as §3

[4] = system: Aβ1-42 production in APB10 cells (APP-Sw-KK and PS1-DTG385); assay: Inhibition assay, stable cell lines: Elisa of Aβ1-42 in conditioned media, PS1-DTG385 cell line; conditions: for dose response profile, Aβ1-42 production: PS1-DTG385 cell line
Source text: as §1, §4
Primary Antibody 6E10 was purchased from Senetek PLC (St. Louis, Mo.). Secondary Antibodies 162, 163, 164 and 165 were purchased from New York Institute for Basic Research (Staten Island, N.Y.). β Bachem (Torrence, Calif.). β-Amyloid 1-40 is cat #ZN571) and 1-42 is cat #ZN327) Neutravidin was purchased from Pierce (Rockford, Ill.). The tetramethylbenzidine color development system was purchased from Kirkigaard & Perry Laboratories Inc. (Gaithersburg, Md.). Plates were read on a Molecular Devices Thermomax Plate Reader with integrated software that calculated the data and analyzed confidence values for the samples.
The coating buffer is 0.1M NaHCO3, pH8.2. Wash buffer is Dulbecco's PBS+0.05% Tween 20 (PBST). Blocking buffer is PBST+1% BSA (make up fresh the day of assay). The substrate is TMB Kirkegaard & Perry Labs. (cat.no.50-76-03). Plates are Costar 96 well half area EIA plates (cat.no.3690). Supplemental BSA is supplied as PBST+10% BSA made fresh on the day of assay.
1. Coat half area 96 well plates (Costar 3690) overnight @ 4° C. with capture antibody 6E10 (50 μl/well) made at […] in coating buffer, pH8.2.
2. Wash plates on an automatic plate washer 1× with wash buffer (175 μl/well).
3. Add 75 ul of blocking buffer to each well. Incubate 1 hr. @room temperature, then wash 3×.
4. Make standard curves from fresh aliquots for each amyloid in blocking buffer as follows:
b. Aβ 1-42 (10 μM. stock in DMSO): Make an initial dilution of […] then follow the instructions for Abeta 1-40 starting at the 1:100 dilution.
5. Add 50 μl of each std. (use duplicates) or sample dilution into the appropriate wells.
Incubate the standards and unknown samples @ room temperature for 3 to 4 hrs. If the samples being assayed contain no protein, 5 μl. of supplemental 10% BSA should be added to the sample wells before adding 50 μl. of sample.
6. […]

[5] = system: gamma-secretase (Aβ1-40 and Aβ1-42 production in three stable cell lines); assay: Inhibition assay, stable cell lines: overall potency on Aβ1-40 and Aβ1-42 production; conditions: greater than 512088
Source text: as §1
The compounds used were L685,458 (Bachem Cat # H-5106) described by Li et al (15), one we have designated 512088, a fenchylamine sulfonamide inhibitor described by Rishton et al. (16). Z-Leu-Leu-Leu-H, also known as MG132 (Peptide Institute Cat # 3175-v) described by Tajima et al (17), and DMSO (Aldrich Cat # 27,685-5) as a vehicle control. All drugs were resuspended in DMSO at a concentration of 10 mM. Serial dilutions of the drugs were made in cell culture media [DMEM (Gibco cat # 11965-092) supplemented with 10% fetal bovine serum, 1 mM sodium pyruvate, 100 units/ml penicillin G, 100 ug/ml streptomycin sulfate, and 400 ug/ml Geneticin]. Stable cell lines used for drug testing were H125.3-16 (expressing APP-Sw-KK), APA2 (co-expressing APP-Sw-KK and PS1-wt), APB10 (co-expressing APP-Sw-KK and PS1-DTG385), and APD3 (co-expressing APP-Sw-KK and PS1-M146V). APP-Sw-KK (An APP construct with a di-lysine motif at the C terminus) has been described in U.S. patent application Ser. No. 09/416901 filed Oct. 13, 1999 and also in WO 00/17369 “Alzheimer's Disease Secretase” published Mar. 30, 2000. […] Conditioned media was harvested 24 hours post-treatment and analyzed in an Elisa assay for Aβ40 or Aβ42 levels (Described below). […]

Compound	dose response profile, inhibition of Aβ1-40 [1]	dose response profile, inhibition of Aβ1-40 [2]	dose response profile, Aβ1-42 production [3]	peak in the dose response (Aβ1-42) ([3]; PS1wt cell lines, FIG. 8) [µM]	dose response profile, Aβ1-42 production [4]	potentiation of production of Aβ1-42 relative to Aβ1-40 ([4]; PS1DTG385 cells)	peak in the dose response (Aβ1-42) ([4]; PS1DTG385 cells, FIG. 8) [µM]	potency relative to 512088 [5]	shift of the dose response compared with the PS1wt cell lines ([4]; PS1DTG385 cells)
CC(C)C[C@@H](C=O)NC(=O)[C@H](CC(C)C)NC(=O)[C@H](CC(C)C)NC(=O)OCc1ccccc1 [MG132, Z-Leu-Leu-Leu-H] (Cbz-Leu-Leu-Leu-aldehyde)	not strongly biphasic in any of the cell lines except the parental PS1wt HEK125.3-16	not strongly biphasic	strongly biphasic	10	not strongly biphasic	does not happen	0.3	–	–
CC(C)C[C@H](NC(=O)[C@H](Cc1ccccc1)C[C@@H](O)[C@H](Cc1ccccc1)NC(=O)OC(C)(C)C)C(=O)N[C@@H](Cc1ccccc1)C(N)=O [L685,458]	biphasic dose response	linear decrease	biphasic	–	clearly biphasic	–	–	approximately 10 fold	slightly lower potency
